In patent US9937151B2, “Carbapenem antibacterials with gram-negative activity” (priority 2010, dated 2018):
In brackets after ≈: the same amount, converted by molar mass.

Test system: G(−) bacterial strains
Assay: Dilution antimicrobial susceptibility tests (MIC, NCCLS agar dilution / broth dilution)
Format: cell-based, Gram-negative organisms
Settings: unit assumed
Outline: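 Agar dilution on Mueller-Hinton agar at 10^4 CFU/spot and broth dilution at 5×10^5 CFU/well, per NCCLS M7-A5. Streptococci tested on Mueller-Hinton agar with 5% sheep blood. MIC taken as minimum inhibitory concentration; ATCC control strains run alongside.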

[1] = strain #1 Acinetobacter calcoaceticus
[2] = strain #2 Acinetobacter baumannii, Cf-R, Ci-R
[3] = strain #3 Acinetobacter baumannii, Cf-R, Ci-R, Mp-I
[4] = strain #4 Acinetobacter baumannii, Cf-R, Imp-I, CBPase
[5] = strain #7 Enterobacter aerogenes
[6] = strain #8 Enterobacter cloacae, Cf-R, B+
[7] = strain #9 Enterobacter cloacae, Cf-R
[8] = strain #10 Escherichia coli, Ci-R
[9] = strain #11 Escherichia coli, Ci-R, AmpC
[10] = strain #15 Klebsiella pneumoniae
[11] = strain #16 Moraxella catarrhalis
[12] = strain #21 Providencia rettgeri
[13] = strain #22 Salmonella typhimurium
[14] = strain #25 Shigella dysenteriae
[15] = strain #28 Stenotrophomonas maltophilia
[16] = strain #29 Pseudomonas aeruginosa
[17] = strain #30 Pseudomonas aeruginosa
[18] = strain #31 Pseudomonas aeruginosa, Ofx-R
[19] = strain #32 Pseudomonas aeruginosa, Cf-R
[20] = strain #33 Pseudomonas aeruginosa, Ci-R
[21] = strain #34 Pseudomonas aeruginosa, Gen-R
[22] = strain #35 Pseudomonas aeruginosa, Ip-R
[23] = strain #36 Pseudomonas aeruginosa, Cf-R, Ci-R, Mp-R

Compound	MIC [1]	MIC [2]	MIC [3]	MIC [4]	MIC (strain #5 Citrobacter diversus)	MIC (strain #6 Citrobacter freundii)	MIC [5]	MIC [6]	MIC [7]	MIC [8]	MIC [9]	MIC (strain #12 Escherichia coli)	MIC (strain #13 Escherichia coli)	MIC (strain #14 Klebsiella oxytoca)	MIC [10]	MIC [11]	MIC (strain #17 Morganella Morganii)	MIC (strain #18 Morganella Morganii)	MIC (strain #19 Proteus vulgaris)	MIC (strain #20 Proteus mirabilis)	other results
C[C@@H](O)C1C(=O)N2C(C(=O)O)=C(CN3CCC(NC(=O)CNC(=N)N)C3)[C@H](C)C12 (stereo partly shown) [Compound 167]	32 µg/mL (≈ 78.3 µM)	> 32 µg/mL	> 32 µg/mL	> 32 µg/mL	1 µg/mL (≈ 2.45 µM)	2 µg/mL (≈ 4.9 µM)	4 µg/mL (≈ 9.79 µM)	2 µg/mL (≈ 4.9 µM)	2 µg/mL (≈ 4.9 µM)	1 µg/mL (≈ 2.45 µM)	1 µg/mL (≈ 2.45 µM)	1 µg/mL (≈ 2.45 µM)	1 µg/mL (≈ 2.45 µM)	2 µg/mL (≈ 4.9 µM)	2 µg/mL (≈ 4.9 µM)	2 µg/mL (≈ 4.9 µM)	8 µg/mL (≈ 19.6 µM)	8 µg/mL (≈ 19.6 µM)	4 µg/mL (≈ 9.79 µM)	2 µg/mL (≈ 4.9 µM)	MIC [12]: 2 µg/mL (≈ 4.9 µM); MIC [13]: 2 µg/mL (≈ 4.9 µM); MIC (strain #23 Serratia marcescens): 2 µg/mL (≈ 4.9 µM); MIC (strain #24 Serratia marcescens): 4 µg/mL (≈ 9.79 µM); MIC [14]: 1 µg/mL (≈ 2.45 µM); MIC (strain #26 Shigella sonnei): 1 µg/mL (≈ 2.45 µM); MIC (strain #27 Shigella flexneri): 1 µg/mL (≈ 2.45 µM); MIC [15]: 16 µg/mL (≈ 39.2 µM)
C[C@@H](O)[C@H]1C(=O)N2C(C(=O)O)=C(CN3C[C@@H](O)[C@H](NC(=N)N)C3)[C@H](C)[C@H]12 [Compound 178]	0.13 µg/mL (≈ 0.354 µM)	1 µg/mL (≈ 2.72 µM)	1 µg/mL (≈ 2.72 µM)	1 µg/mL (≈ 2.72 µM)	0.25 µg/mL (≈ 0.68 µM)	0.5 µg/mL (≈ 1.36 µM)	1 µg/mL (≈ 2.72 µM)	0.25 µg/mL (≈ 0.68 µM)	0.5 µg/mL (≈ 1.36 µM)	0.25 µg/mL (≈ 0.68 µM)	0.25 µg/mL (≈ 0.68 µM)	0.5 µg/mL (≈ 1.36 µM)	0.5 µg/mL (≈ 1.36 µM)	0.5 µg/mL (≈ 1.36 µM)	0.5 µg/mL (≈ 1.36 µM)	≤ 0.008 µg/mL	2 µg/mL (≈ 5.44 µM)	2 µg/mL (≈ 5.44 µM)	2 µg/mL (≈ 5.44 µM)	0.5 µg/mL (≈ 1.36 µM)	MIC [12]: 1 µg/mL (≈ 2.72 µM); MIC [13]: 0.5 µg/mL (≈ 1.36 µM); MIC (strain #23 Serratia marcescens): 1 µg/mL (≈ 2.72 µM); MIC (strain #24 Serratia marcescens): 2 µg/mL (≈ 5.44 µM); MIC [14]: 0.5 µg/mL (≈ 1.36 µM); MIC (strain #26 Shigella sonnei): 0.5 µg/mL (≈ 1.36 µM); MIC (strain #27 Shigella flexneri): 0.25 µg/mL (≈ 0.68 µM); MIC [15]: 0.13 µg/mL (≈ 0.354 µM); MIC [16]: 1 µg/mL (≈ 2.72 µM); MIC [17]: 2 µg/mL (≈ 5.44 µM); MIC [18]: 1 µg/mL (≈ 2.72 µM); MIC [19]: 2 µg/mL (≈ 5.44 µM); MIC [20]: 2 µg/mL (≈ 5.44 µM); MIC [21]: 2 µg/mL (≈ 5.44 µM); MIC [22]: 2 µg/mL (≈ 5.44 µM); MIC [23]: 16 µg/mL (≈ 43.5 µM)
CC(O)C1C(=O)N2C(C(=O)O)=C(CN3CCC(C(=N)N)C3)C(C)C12 (stereo not shown) [Compound 185a]	0.13 µg/mL (≈ 0.386 µM)	0.5 µg/mL (≈ 1.49 µM)	1 µg/mL (≈ 2.97 µM)	1 µg/mL (≈ 2.97 µM)	0.13 µg/mL (≈ 0.386 µM)	0.13 µg/mL (≈ 0.386 µM)	0.5 µg/mL (≈ 1.49 µM)	0.063 µg/mL (≈ 0.187 µM)	0.13 µg/mL (≈ 0.386 µM)	0.063 µg/mL (≈ 0.187 µM)	0.063 µg/mL (≈ 0.187 µM)	0.063 µg/mL (≈ 0.187 µM)	0.13 µg/mL (≈ 0.386 µM)	0.25 µg/mL (≈ 0.743 µM)	0.25 µg/mL (≈ 0.743 µM)	≤ 0.008 µg/mL	1 µg/mL (≈ 2.97 µM)	1 µg/mL (≈ 2.97 µM)	0.5 µg/mL (≈ 1.49 µM)	0.13 µg/mL (≈ 0.386 µM)	MIC [12]: 0.5 µg/mL (≈ 1.49 µM); MIC [13]: 0.13 µg/mL (≈ 0.386 µM); MIC (strain #23 Serratia marcescens): 0.25 µg/mL (≈ 0.743 µM); MIC (strain #24 Serratia marcescens): 0.5 µg/mL (≈ 1.49 µM); MIC [14]: 0.13 µg/mL (≈ 0.386 µM); MIC (strain #26 Shigella sonnei): 0.13 µg/mL (≈ 0.386 µM); MIC (strain #27 Shigella flexneri): 0.063 µg/mL (≈ 0.187 µM); MIC [15]: 0.063 µg/mL (≈ 0.187 µM); MIC [16]: 1 µg/mL (≈ 2.97 µM); MIC [17]: 1 µg/mL (≈ 2.97 µM); MIC [18]: 0.5 µg/mL (≈ 1.49 µM); MIC [19]: 1 µg/mL (≈ 2.97 µM); MIC [20]: 1 µg/mL (≈ 2.97 µM); MIC [21]: 1 µg/mL (≈ 2.97 µM); MIC [22]: 2 µg/mL (≈ 5.95 µM); MIC [23]: 8 µg/mL (≈ 23.8 µM)
